Data on 25 molecules can be found in patent US12392782B2, “Characterization of protein binding to per- and polyfluoroalkyl substances” (North Carolina State University, priority 2021, dated 2025).

The target of data set [1] is HSA (Homo sapiens, UniProt P02768). Put plainly: Differential scanning fluorimetry (DSF) thermal shift assay of HSA binding. As to conditions: for bound by HSA: result in words. The procedure: (§1) Assays were also performed in 384-well plates, in which the reactions were performed using half the final volume (10 μL) and the concentration of each reagent was halved compared to those used in the 96-well plates.
(§2) Data are reported as mean values±SEM following background subtraction.
(§3) [formula] Top is the maximal response, bottom is minimal response, P is protein concentration, Kd is dissociation constant, X is ligand concentration, and Y is change in Tm. […] Comparison between protein concentrations and comparisons of calculated binding affinities between different compounds was performed using one-way analysis of variance (ANOVA) and a Tukey's post hoc test was performed to evaluate pair-wise differences. Significance between differences in values was defined as p<0.05.
(§4) Possible solvent effects were investigated for PFOA that was solubilized in each of the three solvents.
(Differential scanning fluorimetry follows unfolding on heating by fluorescence.)

For data set [2], the target named is bovine serum albumin (BSA) (Bos taurus, UniProt P02769). Put plainly: DSF thermal shift assay of bovine serum albumin binding. The procedure: as §1, §2, §3
(§5) Binding affinities for certain PFAS compounds were also determined using PSA, BSA, and RSA.

Data set [3] addresses Porcine serum albumin (PSA) (Sus scrofa, UniProt P08835). Put plainly: DSF thermal shift assay of porcine serum albumin binding. The procedure:
as §1, §2, §3, §5

For data set [4], the target named is rat serum albumin (RSA) (Rattus norvegicus, UniProt P02770). Put plainly: DSF thermal shift assay of rat serum albumin binding. The procedure: as §1, §2, §3, §5
Text in data set [5]: as §4
The conditions of data set [6]: decarboxylation (Liberatore et al.); cited from earlier work.
[7] abbreviates: PFAS, 4-parameter fit of Δ Tm, mean ± SEM.
The mark [8] stands for this setting: PFAS, single site ligand binding model, mean ± SEM.
The mark [9] stands for this setting: stock solvent DMSO (50% in HBS), mean ± SEM.

Molecules are shown by their SMILES. Where two headings read alike, the source gives them in different places.

Sequence of bovine serum albumin (BSA) (P02769 25-607): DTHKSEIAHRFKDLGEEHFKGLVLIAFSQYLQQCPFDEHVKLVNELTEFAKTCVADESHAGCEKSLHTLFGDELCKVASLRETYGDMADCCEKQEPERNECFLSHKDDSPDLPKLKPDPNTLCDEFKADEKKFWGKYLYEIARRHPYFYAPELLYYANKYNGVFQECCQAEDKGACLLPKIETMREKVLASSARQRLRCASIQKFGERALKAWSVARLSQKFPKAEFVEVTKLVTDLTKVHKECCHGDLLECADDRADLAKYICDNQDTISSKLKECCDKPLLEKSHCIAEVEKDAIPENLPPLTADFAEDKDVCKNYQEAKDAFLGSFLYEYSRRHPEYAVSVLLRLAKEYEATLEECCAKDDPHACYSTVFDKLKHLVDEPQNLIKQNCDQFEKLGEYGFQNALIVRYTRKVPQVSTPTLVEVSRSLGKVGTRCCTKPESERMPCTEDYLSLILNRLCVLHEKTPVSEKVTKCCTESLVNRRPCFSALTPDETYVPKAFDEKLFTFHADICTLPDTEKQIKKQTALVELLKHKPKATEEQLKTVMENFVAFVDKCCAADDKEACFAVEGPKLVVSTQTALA
Sequence of HSA (P02768 25-609): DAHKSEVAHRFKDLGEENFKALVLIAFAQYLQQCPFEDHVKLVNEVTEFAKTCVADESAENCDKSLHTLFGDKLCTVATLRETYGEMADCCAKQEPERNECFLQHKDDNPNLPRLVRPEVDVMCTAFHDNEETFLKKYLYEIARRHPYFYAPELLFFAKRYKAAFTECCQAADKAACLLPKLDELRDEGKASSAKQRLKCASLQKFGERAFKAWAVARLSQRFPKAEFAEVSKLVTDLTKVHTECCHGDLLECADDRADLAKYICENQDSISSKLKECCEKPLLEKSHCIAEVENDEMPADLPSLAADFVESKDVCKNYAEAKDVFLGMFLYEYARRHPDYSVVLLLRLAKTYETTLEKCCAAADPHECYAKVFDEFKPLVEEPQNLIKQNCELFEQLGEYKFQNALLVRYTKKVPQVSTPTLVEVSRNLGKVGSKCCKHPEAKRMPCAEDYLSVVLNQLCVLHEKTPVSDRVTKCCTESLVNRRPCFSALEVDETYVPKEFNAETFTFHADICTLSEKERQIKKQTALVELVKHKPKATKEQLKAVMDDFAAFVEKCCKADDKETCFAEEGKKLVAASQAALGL
Sequence of Porcine serum albumin (PSA) (P08835 25-607): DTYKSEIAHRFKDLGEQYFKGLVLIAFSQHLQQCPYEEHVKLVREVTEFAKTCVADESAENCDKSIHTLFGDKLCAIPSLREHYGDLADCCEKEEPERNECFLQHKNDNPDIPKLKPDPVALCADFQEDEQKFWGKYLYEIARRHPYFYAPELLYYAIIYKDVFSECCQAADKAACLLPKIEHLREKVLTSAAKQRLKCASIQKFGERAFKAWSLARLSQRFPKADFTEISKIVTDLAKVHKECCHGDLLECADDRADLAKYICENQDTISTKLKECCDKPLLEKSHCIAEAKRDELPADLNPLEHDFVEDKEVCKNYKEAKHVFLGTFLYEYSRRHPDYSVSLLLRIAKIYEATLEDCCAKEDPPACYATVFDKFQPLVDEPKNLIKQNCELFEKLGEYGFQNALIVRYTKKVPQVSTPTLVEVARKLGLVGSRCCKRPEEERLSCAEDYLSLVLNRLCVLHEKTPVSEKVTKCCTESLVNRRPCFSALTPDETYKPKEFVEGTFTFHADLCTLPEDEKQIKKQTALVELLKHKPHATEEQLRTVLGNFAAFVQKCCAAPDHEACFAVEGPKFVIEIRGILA
Sequence of rat serum albumin (RSA) (P02770 25-608): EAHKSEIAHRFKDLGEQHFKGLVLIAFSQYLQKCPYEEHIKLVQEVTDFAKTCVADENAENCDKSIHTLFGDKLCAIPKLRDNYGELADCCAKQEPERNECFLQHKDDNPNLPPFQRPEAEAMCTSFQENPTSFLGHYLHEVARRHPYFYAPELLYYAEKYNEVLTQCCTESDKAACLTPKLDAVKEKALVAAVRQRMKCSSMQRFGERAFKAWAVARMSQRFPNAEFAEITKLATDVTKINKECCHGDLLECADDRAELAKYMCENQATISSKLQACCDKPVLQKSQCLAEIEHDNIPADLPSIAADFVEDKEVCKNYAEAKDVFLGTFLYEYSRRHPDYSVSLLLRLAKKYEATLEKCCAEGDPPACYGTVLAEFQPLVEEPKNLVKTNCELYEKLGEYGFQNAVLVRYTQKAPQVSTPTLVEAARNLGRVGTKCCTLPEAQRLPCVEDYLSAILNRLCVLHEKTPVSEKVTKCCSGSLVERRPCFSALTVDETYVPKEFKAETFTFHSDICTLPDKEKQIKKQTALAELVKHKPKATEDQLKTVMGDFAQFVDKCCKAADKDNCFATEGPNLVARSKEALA

`O=C(O)CCC(F)(F)C(F)(F)C(F)(F)C(F)(F)C(F)(F)F` [5:3 FTCA, 2H,2H,3H,3H-Perfluorooctanoic acid]: in data set [1], the EC50 was found to be 1480 ± 100 µM and the Kd came out at 620 ± 42 µM.
For the molecule `O=S(=O)(O)C(F)(F)C(F)(F)C(F)(F)C(F)(F)F` [PFBS, Perfluorobutanesulfonic acid], the Kd in data set [2] is 1130 ± 80 µM; in data set [3] it was 1550 ± 40 µM; in data set [1], 1650 ± 280 µM; in data set [4], 930 ± 80 µM. In addition, in data set [1], the EC50 was 1720 ± 230 µM.
For `O=C(O)C(F)(F)C(F)(F)C(F)(F)C(F)(F)F` [PFPeA, perfluoropentanoic acid], in data set [1], the EC50 was 2140 ± 170 µM and the Kd was 2100 ± 230 µM.
On to `O=S(=O)(O)C(F)(F)C(F)(F)C(F)(F)C(F)(F)C(F)(F)C(F)(F)F` [PFHxS, perfluorohexanesulfonic acid], for which the “Δ Tm” value in data set [1] (PFAS, 0.125 mM HSA, ± SEM) was determined as 11.0 ± 0.17 °C. Further, in data set [1] (setting [7]), the half-maximal effective concentration (EC50) was found to be 980 ± 28 µM. Further, the Kd in data set [1] (setting [8]) amounted to 710 ± 190 µM.
`O=C(O)CCC(F)(F)C(F)(F)C(F)(F)C(F)(F)C(F)(F)C(F)(F)F` [6:3 FTCA, 2,H,2H,3H,3H-Perfluorononanoic acid]: in data set [1], the EC50 worked out at 840 ± 86 µM and the Kd worked out at 810 ± 92 µM.
On to `O=S(=O)(O)C(F)(F)C(F)(F)C(F)(F)C(F)(F)C(F)(F)C(F)(F)C(F)(F)C(F)(F)F` [PFOS, perfluorooctanesulfonic acid], for which, in data set [1], the EC50 was 1130 ± 130 µM.
For the molecule `O=C(O)C(F)(F)C(F)(F)C(F)(F)C(F)(F)C(F)(F)C(F)(F)C(F)(F)F` [PFOA, perfluorooctanoic acid], the Kd in data set [2] was found to be 750 ± 50 µM; in data set [3], 320 ± 40 µM; in data set [1] (setting [9]) it was 840 ± 80 µM; in data set [1] (stock solvent HEPES-buffered saline (HBS), mean ± SEM), 830 ± 110 µM. In addition, the EC50 in data set [1] (setting [7]) turned out to be 840 ± 43 µM; in data set [1] (setting [9]), 850 ± 10 µM; in data set [1] (stock solvent Methanol (30% in HBS), mean ± SEM), 780 ± 70 µM. Also, the “Δ Tm” value in data set [1] (stock solvent DMSO (50% in HBS)) was 13.2 °C; in data set [1] (stock solvent Methanol (30% in HBS)), 13.5 °C.
Turning to `O=C(O)CCC(F)(F)C(F)(F)C(F)(F)C(F)(F)C(F)(F)C(F)(F)C(F)(F)C(F)(F)F` [8:3 FTCA, 2,H,2H,3H,3H-Perfluoroundecanoate], the aqueous solubility entry in data set [5] is given as “limited aqueous solubility”. Further, in data set [1], the EC50 is 1160 ± 170 µM and the Kd amounted to 970 ± 68 µM.
For `OCCC(F)(F)C(F)(F)C(F)(F)C(F)(F)F` [4:2 FTOH, 1H,1H,2H,2H-Perfluorohexane-1-ol], in data set [1] (PFAS, 0.125 mM HSA, ± SEM), the “Δ Tm” value is 0 ± 0 °C. Further, in data set [1], the “bound by HSA” value is “not bound by HSA”.
In the same order, the values of `OCCC(F)(F)C(F)(F)C(F)(F)C(F)(F)C(F)(F)C(F)(F)F` [6:2 FTOH, 1H,1H,2H,2H-Perfluorooctanol] are 0 ± 0 °C and “not bound by HSA”.
For `CCCCCCCCCCCCCCCC(=O)O` [Hexadecanoic Acid, hexadecanoic acid, reference compound], in data set [1], the EC50 was found to be 84 ± 21 µM and the Kd was determined as 30 ± 8 µM.
With `O=C(O)C(F)(F)C(F)(F)C(F)(F)C(F)(F)C(F)(F)C(F)(F)F` [PFHpA, perfluoroheptanoic acid], the “Δ Tm” value in data set [1] (PFAS, 0.125 mM HSA, ± SEM) is 15.3 ± 0.29 °C. In addition, in data set [1] (setting [7]), the concentration for a half-maximal effect (EC50) came to 680 ± 60 µM. Also, the Kd in data set [1] (setting [8]) was 440 ± 80 µM.
In the same order, the values of `O=S(=O)(O)CCC(F)(F)C(F)(F)C(F)(F)C(F)(F)F` [4:2 FTSA, 2H,2H,3H,3H-Perfluorohexansulfonic acid] are 3.49 ± 0.084 °C, 1450 ± 140 µM and 1070 ± 190 µM.
Consider `O=C(O)C(F)(F)C(F)(F)C(F)(F)C(F)(F)C(F)(F)F` [PFHxA, Perfluorohexanoic acid], for which the Kd in data set [2] stood at 950 ± 110 µM; in data set [3], 1420 ± 30 µM; in data set [1], 1640 ± 190 µM; in data set [4], 960 ± 70 µM. For the same molecule, in data set [1], the EC50 was 1400 ± 110 µM.
On to `O=C(O)C(F)(F)C(F)(F)C(F)(F)C(F)(F)C(F)(F)C(F)(F)C(F)(F)C(F)(F)C(F)(F)C(F)(F)C(F)(F)F` [PFDoA, perfluorododecanoic acid], for which, in data set [1] (PFAS, 0.125 mM HSA, ± SEM), the “Δ Tm” value was 7.74 ± 0.14 °C. In data set [1] (setting [7]), the EC50 came to 2510 ± 140 µM. Further, in data set [1] (setting [8]), the Kd turned out to be 1890 ± 260 µM.
Turning to `O=C(O)C(F)(F)C(F)(F)C(F)(F)C(F)(F)C(F)(F)C(F)(F)C(F)(F)C(F)(F)C(F)(F)C(F)(F)F` [PFunDA, Perfluoroundecanoic acid], in data set [1], the EC50 was 1490 ± 24 µM and the Kd was 1360 ± 530 µM.
As for `O=C(O)C(F)(OC(F)(F)C(F)(F)C(F)(F)F)C(F)(F)F` (stereo not drawn) [HFPO-DA, hexafluoropropylene oxide dimer acid], the EC50 in data set [1] (HFPO-DA in DMSO (1:1 HBS and DMSO, room temperature 4 hours before analysis)) came to 2340 ± 230 µM; in data set [1] (setting [7]) it was 1830 ± 250 µM. The “Δ Tm” value in data set [1] (PFAS, 0.125 mM HSA, ± SEM) is 13.7 ± 0.12 °C. Also, the Kd in data set [1] (setting [8]) stood at 1600 ± 160 µM. Besides, the “stability in DMSO” value in data set [6] is “rapidly converted to E1”.
Turning to `O=C(O)CCC(F)(F)C(F)(F)C(F)(F)F` [3:3 FTCA, 2H,2H,3H,3H-Perfluorohexanoic acid], in data set [1], the EC50 is 2060 ± 210 µM and the Kd came to 1710 ± 190 µM.
With `O=C(O)C(F)(F)OC(F)(F)C(F)(F)OC(F)(F)C(F)(F)OC(F)(F)F` [PFO3DoDA, Perfluoro-3,6,9-trioxadecanoic acid], in data set [1] (PFAS, 0.125 mM HSA, ± SEM), the “Δ Tm” value turned out to be 20.6 ± 0.58 °C. In addition, the EC50 in data set [1] (setting [7]) turned out to be 1670 ± 190 µM. In data set [1] (setting [8]), the Kd is 1530 ± 140 µM.
Regarding `O=C(O)C(F)(F)C(F)(F)C(F)(F)C(F)(F)C(F)(F)C(F)(F)C(F)(F)C(F)(F)F` [PFNA, perfluorononanoic acid], in data set [1], the EC50 is 600 ± 92 µM and the Kd came to 580 ± 87 µM.
For `O=S(=O)(O)CCC(F)(F)C(F)(F)C(F)(F)C(F)(F)C(F)(F)C(F)(F)F` [6:2 FTSA, 2H,2H,3H,3H-Perfluorooctane-1-sulfonate], the Kd is 930 ± 50 µM in data set [2] (read-out: Bovine Kd ± SEM, bovine albumin); 370 ± 140 µM in data set [1] (setting [8]); 370 ± 140 µM in data set [1] (read-out: Human Kd ± SEM, human albumin). Also, in data set [1] (PFAS, 0.125 mM HSA, ± SEM), the “Δ Tm” value came to 3.60 ± 0.33 °C. Also, the EC50 in data set [1] (setting [7]) was found to be 470 ± 120 µM.
As for `O=C(O)C(F)(F)C(F)(F)C(F)(F)F` [PFBA, Perfluorobutanoic acid], the Kd in data set [2] was 980 ± 100 µM; in data set [3], 1500 ± 110 µM; in data set [1] it was 2570 ± 320 µM; in data set [4], 1390 ± 110 µM. For the same molecule, the EC50 in data set [1] was 2610 ± 190 µM.
Take `FC(OC(F)(F)C(F)(F)C(F)(F)F)C(F)(F)F` (stereo not drawn) [E1, 1,1,1,2,2,3,3-Heptafluoro-3-(1,2,2,2-tetrafluoroethoxy)propane]: the “Δ Tm” value in data set [1] (PFAS, 0.125 mM HSA, ± SEM) amounted to 7.32 ± 0.042 °C. The EC50 in data set [1] (setting [7]) was 2340 ± 230 µM. Moreover, in data set [1] (setting [8]), the Kd was found to be 1640 ± 140 µM.
Turning to `O=S(=O)(O)C(F)(F)C(F)(F)OC(F)(C(F)(F)F)C(F)(F)OC(F)C(F)(F)F` (stereo not drawn) [Nafion bp2, 7H-perfluoro-4-methyl-3,6-dioxaoctanesulfonic acid], in data set [1], the EC50 turned out to be 1900 ± 240 µM and the Kd worked out at 1510 ± 150 µM.
In the same order, the values of `O=C(O)C(F)(F)C(F)(F)C(F)(F)C(F)(F)C(F)(F)C(F)(F)C(F)(F)C(F)(F)C(F)(F)F` [PFDA, perfluorodecanoic acid] are 1110 ± 70 µM and 1190 ± 240 µM.

The EC50 is the concentration giving half of the maximal effect. The Kd is the equilibrium constant for the complex coming apart.
